The supplement of paper PMC6045584
± gives the standard deviation of the averaged measurements.

Key:
METHOTREXATE = compound: CN(Cc1cnc2nc(N)nc(N)c2n1)c1ccc(C(=O)N[C@@H](CCC(=O)O)C(=O)O)cc1 [METHOTREXATE]; assay: surviving fraction relative to DMSO-only wells; higher = less growth inhibition; settings: exposure time: 5 days
Procedure, shortened: (§1)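 Luminescence normalised to the median of DMSO-only wells defines surviving fraction, with viability read by CellTiter-Glo. Signal was recorded after 10 minutes at room temperature, once log-phase tumour cell lines seeded at 250–500 cells per well in 384-well plates had spent 24 hours settling and then five days under continuous exposure to inhibitors at 0.5, 1, 5, 10, 50, 100, 500 and 1000 nM.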

MK2206 = compound: NC1(c2ccc(-c3nc4ccn5c(=O)[nH]nc5c4cc3-c3ccccc3)cc2)CCC1 [MK2206]; assay: as above; settings: exposure time: 5 days
Procedure, shortened: as §1

Test System	surviving fraction (METHOTREXATE; 0.5 nM)	surviving fraction (METHOTREXATE; 1 nM)	surviving fraction (METHOTREXATE; 5 nM)	surviving fraction (METHOTREXATE; 10 nM)	surviving fraction (METHOTREXATE; 50 nM)	surviving fraction (METHOTREXATE; 100 nM)	surviving fraction (METHOTREXATE; 500 nM)	surviving fraction (METHOTREXATE; 1000 nM)	surviving fraction (MK2206; 0.5 nM)	surviving fraction (MK2206; 1 nM)	surviving fraction (MK2206; 5 nM)	surviving fraction (MK2206; 10 nM)	surviving fraction (MK2206; 50 nM)	surviving fraction (MK2206; 100 nM)	surviving fraction (MK2206; 500 nM)	surviving fraction (MK2206; 1000 nM)
NCIH441 LUNG	1.15 ± 0.12	1.14 ± 0.099	1.12 ± 0.023	1.11 ± 0.062	1.04 ± 0.12	0.882 ± 0.067	0.882 ± 0.11	0.855 ± 0.1	1.08 ± 0.034	1.18 ± 0.017	1.11 ± 0.034	1.08 ± 0.11	1.01 ± 0.059	1.07 ± 0.041	1.04 ± 0.073	0.994 ± 0.028
NOS1 BONE	1.07 ± 0.13	1.05 ± 0.12	1.16 ± 0.08	1.15 ± 0.041	1.26 ± 0.25	1.4 ± 0.33	1.19 ± 0.13	1.12 ± 0.06	0.882 ± 0.11	0.883 ± 0.088	1.01 ± 0.1	1.04 ± 0.11	0.807 ± 0.14	0.734 ± 0.011	0.503 ± 0.038	0.454 ± 0.053
NY BONE	0.978 ± 0.015	0.993 ± 0.013	1.07 ± 0.068	0.97 ± 0.037	0.56 ± 0.023	0.566 ± 0.03	0.475 ± 0.026	0.42 ± 0.025	1.03 ± 0.035	1.06 ± 0.024	1.05 ± 0.012	1.05 ± 0.033	0.96 ± 0.047	0.954 ± 0.023	0.882 ± 0.014	0.853 ± 0.017
OS25HAL BONE	0.998 ± 0.041	1.01 ± 0.035	1.05 ± 0.029	0.786 ± 0.031	0.357 ± 0.022	0.217 ± 0.017	0.166 ± 0.0076	0.164 ± 0.0066	0.998 ± 0.042	1.07 ± 0.028	1.07 ± 0.024	1.02 ± 0.026	0.813 ± 0.066	0.631 ± 0.085	0.301 ± 0.035	0.278 ± 0.021
OSHN BONE	1.12 ± 0.015	1.077 ± 0.0067	0.197 ± 0.0074	0.201 ± 0.0096	0.282 ± 0.031	0.265 ± 0.0081	0.251 ± 0.023	0.255 ± 0.031	1.08 ± 0.018	1.12 ± 0.034	1.08 ± 0.021	1.12 ± 0.052	1.05 ± 0.046	1.09 ± 0.038	1.04 ± 0.051	1.09 ± 0.086
PCI30 HEADNECK	0.988 ± 0.075	1.02 ± 0.062	1.11 ± 0.037	1.09 ± 0.075	1.05 ± 0.055	0.96 ± 0.029	0.811 ± 0.016	0.758 ± 0.071	0.999 ± 0.021	1.03 ± 0.13	1.01 ± 0.027	1.07 ± 0.035	0.939 ± 0.039	0.874 ± 0.045	0.592 ± 0.033	0.483 ± 0.017
RDES SOFT TISSUE	1.2 ± 0.1	1.26 ± 0.021	0.831 ± 0.19	0.295 ± 0.015	0.055 ± 0.0036	0.0457 ± 0.0015	0.0463 ± 0.0046	0.0447 ± 0.0015	1.14 ± 0.04	1.27 ± 0.13	1.22 ± 0.074	1.13 ± 0.032	1.06 ± 0.062	1.17 ± 0.1	1.2 ± 0.066	1.104 ± 0.0067
S68 BREAST	0.882 ± 0.3	0.879 ± 0.25	1.1 ± 0.15	1.21 ± 0.29	1.07 ± 0.13	1.21 ± 0.16	1.04 ± 0.18	1.17 ± 0.12	1.15 ± 0.26	0.874 ± 0.16	1.15 ± 0.22	1.14 ± 0.17	0.974 ± 0.22	0.619 ± 0.088	0.229 ± 0.028	0.156 ± 0.044
SAOS2 BONE	1.2 ± 0.051	1.18 ± 0.037	1.25 ± 0.05	1.25 ± 0.023	1.04 ± 0.031	0.841 ± 0.035	0.752 ± 0.018	0.753 ± 0.028	1.08 ± 0.055	1.13 ± 0.041	1.15 ± 0.021	1.14 ± 0.044	0.965 ± 0.063	0.925 ± 0.041	0.676 ± 0.019	0.654 ± 0.038
SCC36 HEADNECK	1.1 ± 0.11	1.1 ± 0.042	1.15 ± 0.076	1.16 ± 0.14	0.828 ± 0.022	0.731 ± 0.017	0.575 ± 0.046	0.626 ± 0.082	1.07 ± 0.037	1.11 ± 0.085	1.1 ± 0.084	1.18 ± 0.053	0.892 ± 0.025	0.936 ± 0.034	0.504 ± 0.044	0.378 ± 0.032
SCC47 HEADNECK	1.11 ± 0.097	1.15 ± 0.098	1.06 ± 0.019	0.946 ± 0.15	0.827 ± 0.04	0.814 ± 0.03	0.773 ± 0.033	0.789 ± 0.019	1.03 ± 0.051	1.06 ± 0.047	1.14 ± 0.065	1.16 ± 0.046	1.04 ± 0.046	1.07 ± 0.052	0.935 ± 0.091	0.828 ± 0.045
SCC90 HEADNECK	1.07 ± 0.075	1.05 ± 0.11	1.07 ± 0.066	1.09 ± 0.098	0.954 ± 0.015	0.852 ± 0.068	0.424 ± 0.06	0.416 ± 0.031	0.954 ± 0.027	1.01 ± 0.048	0.973 ± 0.073	1.12 ± 0.093	0.887 ± 0.011	0.935 ± 0.082	0.704 ± 0.071	0.586 ± 0.047
SG27 HEADNECK	1.1 ± 0.043	1.15 ± 0.15	1.09 ± 0.13	0.944 ± 0.15	1.07 ± 0.034	1.25 ± 0.021	1.12 ± 0.12	1.17 ± 0.07	1.15 ± 0.065	1.17 ± 0.066	1.07 ± 0.056	1.05 ± 0.089	0.843 ± 0.18	0.949 ± 0.12	0.948 ± 0.043	0.932 ± 0.042
SG28 HEADNECK	1.06 ± 0.059	1.06 ± 0.02	1.07 ± 0.09	1.14 ± 0.088	1.04 ± 0.017	1.12 ± 0.087	1.123 ± 0.011	0.976 ± 0.084	1 ± 0.1	1.16 ± 0.013	1.02 ± 0.14	1.05 ± 0.12	0.864 ± 0.061	0.852 ± 0.1	0.634 ± 0.0078	0.719 ± 0.059
SG31 HEADNECK	1.14 ± 0.19	1.21 ± 0.037	1.07 ± 0.1	1.31 ± 0.22	1.16 ± 0.2	1.18 ± 0.19	1.26 ± 0.2	1.21 ± 0.024	1.24 ± 0.29	0.996 ± 0.022	1.1 ± 0.28	1.19 ± 0.2	0.945 ± 0.16	0.916 ± 0.2	0.901 ± 0.13	0.88 ± 0.12
SG32 HEADNECK	0.946 ± 0.11	1.5 ± 0.84	1.19 ± 0.16	1.25 ± 0.34	0.899 ± 0.039	1.02 ± 0.2	1.1 ± 0.14	0.954 ± 0.078	1.04 ± 0.053	0.975 ± 0.3	1.08 ± 0.24	1.17 ± 0.19	1.51 ± 0.17	1.08 ± 0.13	0.964 ± 0.073	0.83 ± 0.1
